Data from ChEMBL document CHEMBL1141237, “Synthesis and activity of N-acyl azacyclic urea HIV-1 protease inhibitors with high potency against multiple drug resistant viral strains” (Bioorg Med Chem Lett, 2005).

Tests used:
[1] = molecular target: Human immunodeficiency virus type 1 protease (Human immunodeficiency virus 1) (UniProt Q72874); experiment: Inhibitory activity against HIV1 protease at 0.5 uM
[2] = system: Human immunodeficiency virus 1; experiment: Antiviral activity against HIV1 in the absence of human serum; format: functional, organism-based
[3] = system: Human immunodeficiency virus; experiment: Antiviral activity against indinavir resistant HIV IND-R mutant strain; format: functional, organism-based; conditions: Human immunodeficiency virus 1, IND-R
[4] = system: Human immunodeficiency virus; experiment: Antiviral activity against Lopinavir resistant HIV A17 mutant strain; format: functional, organism-based; conditions: Human immunodeficiency virus 1, A17
[5] = system: Human immunodeficiency virus 1; experiment: Antiviral activity against HIV1 in the presence of 50% human serum; format: functional, organism-based
[6] = molecular target: Human immunodeficiency virus type 1 protease (Human immunodeficiency virus 1, UniProt Q72874); experiment: Inhibitory activity against HIV1 protease
[7] = molecular target: Human immunodeficiency virus type 1 protease (Human immunodeficiency virus 1) (UniProt Q72874); experiment: Inhibitory activity against HIV1 protease at 1 uM

`O=C(CCc1ccccc1)N1C[C@@H](O)[C@@H](Cc2ccccc2)N(Cc2ccc(O)cc2)C(=O)N1Cc1ccc(O)cc1` showed an inhibition [1] of 76%, an EC50 [2] of 0.017 µM and an EC50 [3] of 0.014 µM. The EC50 [4] was 0.192 µM.

With `O=C(CCc1ccccc1)N1C[C@@H](O)[C@@H](Cc2ccccc2)N(Cc2ccccc2)C(=O)N1Cc1ccc2[nH]ncc2c1` the inhibition [1] was 66%, the EC50 [2] was 0.045 µM and the EC50 [3] was 0.821 µM. The EC50 [4] was 1.07 µM.

For `COc1cc(CN2C(=O)N(Cc3ccc(O)c(OC)c3)N(C(=O)CCc3ccc4c(c3)OCO4)C[C@@H](O)[C@H]2Cc2ccccc2)ccc1O`, the inhibition [1] was 73%, the EC50 [2] was 0.004 µM and the EC50 [5] was 0.056 µM. It also gave an EC50 [3] of 0.054 µM and an EC50 [4] of 0.065 µM.

`COc1cc(CN2C(=O)N(Cc3ccc(O)c(OC)c3)N(C(=O)CCc3ccncc3)C[C@@H](O)[C@H]2Cc2ccccc2)ccc1O` showed an IC50 [6] of 0.0012 µM, an EC50 [2] of 0.212 µM and an EC50 [5] of 0.546 µM.

In the case of `COc1cc(CN2C(=O)N(Cc3ccc(O)c(OC)c3)N(C(=O)CN3CCNCC3)C[C@@H](O)[C@H]2Cc2ccccc2)ccc1O`, the IC50 [6] is reported as 0.0061 µM, the EC50 [2] is reported as 1.49 µM and the EC50 [5] is reported as 3.22 µM.

For `COc1cc(CN2C(=O)N(Cc3ccc(O)c(OC)c3)N(Cc3ccccc3)C[C@@H](O)[C@H]2Cc2ccccc2)ccc1O`, the inhibition [1] was 81%, the EC50 [2] was 0.004 µM and the EC50 [5] was 0.029 µM.

Work on `COc1cc(CN2C(=O)N(Cc3ccc(O)c(OC)c3)N(C(=O)CCc3cccnc3)C[C@@H](O)[C@H]2Cc2ccccc2)ccc1O` yielded an inhibition [1] of 58%, an EC50 [2] of 0.054 µM and an EC50 [5] of 0.353 µM.

`Nc1cccc(CN2C(=O)N(Cc3ccc4[nH]ncc4c3)N(C(=O)CCc3ccccc3)C[C@@H](O)[C@H]2Cc2ccccc2)c1` gave an inhibition [1] of 74%, an EC50 [2] of 0.013 µM and an EC50 [3] of 0.023 µM. The EC50 [4] was 0.098 µM.

With `COc1cc(CN2C(=O)N(Cc3ccc(O)c(OC)c3)N(C(=O)CCCc3ccccc3)C[C@@H](O)[C@H]2Cc2ccccc2)ccc1O` the inhibition [1] was 75%, the EC50 [2] was 0.005 µM and the EC50 [5] was 0.027 µM.

`COc1cc(CN2C(=O)N(Cc3ccc(O)c(OC)c3)N(C(=O)CCc3ccc(OC)c(OC)c3)C[C@@H](O)[C@H]2Cc2ccccc2)ccc1O` was tested, and the inhibition [1] was 72%, the EC50 [2] was 0.015 µM and the EC50 [5] was 0.047 µM.

For `COc1cc(CN2C(=O)N(Cc3ccc(O)c(OC)c3)N(C(=O)CCCCN3CCOCC3)C[C@@H](O)[C@H]2Cc2ccccc2)ccc1O`, the IC50 [6] was 0.0021 µM, the EC50 [2] was 0.086 µM and the EC50 [5] was 0.48 µM. For the same compound, the EC50 [3] was 1.04 µM and the EC50 [4] was greater than 10 µM.

With `Nc1[nH]nc2ccc(CN3C(=O)N(Cc4ccccc4)[C@H](Cc4ccccc4)[C@H](O)CN3C(=O)CCc3ccccc3)cc12` the inhibition [1] was 48%, the EC50 [2] was 0.05 µM and the EC50 [3] was 0.102 µM. For the same compound, the EC50 [4] was 0.897 µM.

`N/C(=N/O)c1cccc(CN2C(=O)N(Cc3ccc4[nH]ncc4c3)N(C(=O)CCc3ccccc3)C[C@@H](O)[C@H]2Cc2ccccc2)c1` showed an inhibition [1] of 90%, an EC50 [2] of 0.074 µM and an EC50 [3] of 0.058 µM. For the same compound, the EC50 [4] was 0.084 µM.

`COc1cccc(CCC(=O)N2C[C@@H](O)[C@@H](Cc3ccccc3)N(Cc3ccc(O)c(OC)c3)C(=O)N2Cc2ccc(O)c(OC)c2)c1` was tested, and the inhibition [1] was 67%, the EC50 [2] was 0.004 µM and the EC50 [5] was 0.062 µM.

`COc1cc(CN2C(=O)N(Cc3ccc(O)c(OC)c3)N(C(=O)CCc3ccoc3)C[C@@H](O)[C@H]2Cc2ccccc2)ccc1O` showed an inhibition [1] of 68%, an EC50 [2] of 0.009 µM and an EC50 [5] of 0.018 µM. For the same compound, the EC50 [3] was 0.227 µM and the EC50 [4] was 0.562 µM.

`CC(C)CC(=O)N1C[C@@H](O)[C@@H](Cc2ccccc2)N(Cc2ccc(N)cc2)C(=O)N1Cc1ccc(N)cc1` gave an EC50 [2] of 0.15 µM and an inhibition [7] of 56%.

`COc1cc(CN2C(=O)N(Cc3ccc(O)c(OC)c3)N(C(=O)CCc3ccc(F)cc3)C[C@@H](O)[C@H]2Cc2ccccc2)ccc1O` showed an inhibition [1] of 67%, an EC50 [2] of 0.004 µM and an EC50 [5] of 0.028 µM. The EC50 [3] was 0.164 µM and the EC50 [4] was 0.189 µM.

Compound `N/C(=N/O)c1cccc(CN2C(=O)N(Cc3ccccc3)N(C(=O)CCc3ccccc3)C[C@@H](O)[C@H]2Cc2ccccc2)c1` has an inhibition [1] of 73%, an EC50 [2] of 0.045 µM and an EC50 [4] of 2.02 µM.

With `COc1cc(CN2C(=O)N(Cc3ccc(O)c(OC)c3)N(C(=O)CC3CCCC3)C[C@@H](O)[C@H]2Cc2ccccc2)ccc1O` the inhibition [1] was 66%, the EC50 [2] was 0.003 µM and the EC50 [5] was 0.06 µM. For the same compound, the EC50 [3] was 0.132 µM and the EC50 [4] was 0.367 µM.

For `COc1cc(CN2C(=O)N(Cc3ccc(O)c(OC)c3)N(C(=O)CCc3ccccc3)C[C@@H](O)[C@H]2Cc2ccccc2)ccc1O`, the inhibition [1] was 55%, the EC50 [2] was 0.004 µM and the EC50 [5] was 0.028 µM. For the same compound, the EC50 [3] was 0.049 µM and the EC50 [4] was 0.102 µM.

For `CC(C)c1nc(CN(C)C(=O)N[C@H](C(=O)N[C@@H](Cc2ccccc2)C[C@H](O)[C@H](Cc2ccccc2)NC(=O)OCc2cncs2)C(C)C)cs1` [RITONAVIR], the EC50 [2] was 0.022 µM, the EC50 [5] was 0.483 µM and the EC50 [4] was 1.24 µM.

Compound `COc1cc(CN2C(=O)N(Cc3ccc(N)c(OC)c3)N(C(=O)CCc3ccccc3)C[C@@H](O)[C@H]2Cc2ccccc2)ccc1N` has an inhibition [1] of 88%, an EC50 [2] of 0.053 µM and an EC50 [3] of 0.504 µM. It also gave an EC50 [4] of 0.464 µM.

`COc1cc(CN2C(=O)N(Cc3ccc(O)c(OC)c3)N(C(=O)CCCN3CCOCC3)C[C@@H](O)[C@H]2Cc2ccccc2)ccc1O` showed an IC50 [6] of 0.0038 µM, an EC50 [2] of 0.308 µM and an EC50 [5] of 0.576 µM.

`Cc1cccc(C)c1OCC(=O)N[C@@H](Cc1ccccc1)[C@@H](O)C[C@H](Cc1ccccc1)NC(=O)[C@H](C(C)C)N1CCCNC1=O` [LOPINAVIR] showed an EC50 [2] of 0.016 µM, an EC50 [5] of 0.067 µM and an EC50 [3] of 0.385 µM. For the same compound, the EC50 [4] was 1.06 µM.

In the case of `COc1cc(CN2C(=O)N(Cc3ccc(O)c(OC)c3)N(C(=O)CCc3ccco3)C[C@@H](O)[C@H]2Cc2ccccc2)ccc1O`, the inhibition [1] is reported as 73%, the EC50 [2] is reported as 0.003 µM and the EC50 [5] is reported as 0.016 µM. It also gave an EC50 [3] of 0.081 µM and an EC50 [4] of 0.455 µM.

Work on `COc1cc(CN2C(=O)N(Cc3ccc(O)c(OC)c3)N(C(=O)CCCc3cccs3)C[C@@H](O)[C@H]2Cc2ccccc2)ccc1O` yielded an inhibition [1] of 64%, an EC50 [2] of 0.004 µM and an EC50 [5] of 0.056 µM.

For `COc1cc(CN2C(=O)N(Cc3ccc(O)c(OC)c3)N(C(=O)COc3ccccc3)C[C@@H](O)[C@H]2Cc2ccccc2)ccc1O`, the inhibition [1] was 53%, the EC50 [2] was 0.929 µM and the EC50 [5] was 5.15 µM.

`COc1cc(CN2C(=O)N(Cc3ccc(O)c(OC)c3)N(C(=O)CCc3ccc(O)cc3)C[C@@H](O)[C@H]2Cc2ccccc2)ccc1O` showed an inhibition [1] of 73%, an EC50 [2] of 0.061 µM and an EC50 [5] of 0.165 µM.

`COc1cc(CN2C(=O)N(Cc3ccc(O)c(OC)c3)N(C(=O)CC(C)C)C[C@@H](O)[C@H]2Cc2ccccc2)ccc1O` was tested, and the inhibition [1] was 73%, the EC50 [2] was 0.009 µM and the EC50 [5] was 0.027 µM. For the same compound, the EC50 [3] was 0.094 µM and the EC50 [4] was 0.586 µM.

For `COc1ccc(CCC(=O)N2C[C@@H](O)[C@@H](Cc3ccccc3)N(Cc3ccc(O)c(OC)c3)C(=O)N2Cc2ccc(O)c(OC)c2)cc1`, the inhibition [1] was 67%, the EC50 [2] was 0.006 µM and the EC50 [5] was 0.048 µM. For the same compound, the EC50 [3] was 0.088 µM and the EC50 [4] was 0.133 µM.

`CC(C)CC(=O)N1C[C@@H](O)[C@@H](Cc2ccccc2)N(Cc2ccc(O)cc2)C(=O)N1Cc1ccc(O)cc1` showed an inhibition [1] of 65%, an EC50 [2] of 0.03 µM and an EC50 [3] of 0.171 µM. The EC50 [4] was 0.312 µM.

`CC(C)CC(=O)N1C[C@@H](O)[C@@H](Cc2ccccc2)N(Cc2cccc(N)c2)C(=O)N1Cc1cccc(N)c1` showed an inhibition [1] of 66%, an EC50 [2] of 0.037 µM and an EC50 [4] of 2.07 µM.

Work on `COc1cc(CN2C(=O)N(Cc3ccc(O)c(OC)c3)N(C(=O)CCCC3CCCO3)C[C@@H](O)[C@H]2Cc2ccccc2)ccc1O` (some centres not stated) yielded an inhibition [1] of 76%, an EC50 [2] of 0.009 µM and an EC50 [5] of 0.077 µM.

In the case of `COc1cc(CN2C(=O)N(Cc3ccc(O)c(OC)c3)N(C(=O)CN3CCCC3)C[C@@H](O)[C@H]2Cc2ccccc2)ccc1O`, the IC50 [6] is reported as 0.0079 µM, the EC50 [2] is reported as 0.572 µM and the EC50 [5] is reported as 0.49 µM.
